Columns and labels:
Format in all cases: physicochemical
[1] = Cocrystal screening by slurry method (Comparative Examples 1-1 to 1-6), powder X-ray diffraction; parameters: key to Cocrystal formation, Comparative Example 1* / Cocrystal formation, Comparative Example 1-1 / Cocrystal formation, Comparative Example 1-2 / Cocrystal formation, Comparative Example 1-3 / Cocrystal formation, Comparative Example 1-4 / Cocrystal formation, Comparative Example 1-5 / Cocrystal formation, Comparative Example 1-6: A cocrystal was completely formed.; B: A mixture of a cocrystal and the host compound or guest compound was formed.; C: A cocrystal was not formed (a mixture of the host compound and the guest compound was formed); conditions: host theophylline; for Cocrystal formation, Comparative Example 1-6: slurry in acetone; for Cocrystal formation, Comparative Example 1-6 / Cocrystal formation, Comparative Example 1-2 / Cocrystal formation, Comparative Example 1-5 / Cocrystal formation, Comparative Example 1-3 / Cocrystal formation, Comparative Example 1-4 / Cocrystal formation, Comparative Example 1-1: room temperature 7 days; for Cocrystal formation, Comparative Example 1-2: slurry in ethanol; for Cocrystal formation, Comparative Example 1-5: slurry in ethyl acetate; for Cocrystal formation, Comparative Example 1-3: slurry in tetrahydrofuran; for Cocrystal formation, Comparative Example 1-4: slurry in toluene; for Cocrystal formation, Comparative Example 1*: slurry summary: A if a cocrystal was formed in any one of Comparative Examples 1-1 to 1-6
Experimental: (§1) 3 mg (0.0167 mmoles) of theophylline and a guest compound shown in Table 1 in an equimolar amount (0.0167 mmoles) to theophylline were weighed and put into a glass container, to which was then added 60 μL of water. These were shaken at room temperature for 7 days, and the obtained residues were subjected to powder X-ray diffraction measurement. 3 mg (0.0167 mmoles) of theophylline and a guest compound shown in Table I in an equimolar amount (0.0167 mmoles) to theophylline were weighed and put into a glass container, to which was then added 60 μL of ethanol. These were shaken at room temperature for 7 days, and the obtained residues were subjected to powder X-ray diffraction measurement. 3 mg (0.0167 mmoles) of theophylline and a guest compound shown in Table 1 in an equimolar amount (0.0167 mmoles) to theophylline were weighed and put into a glass container, to which was then added 60 μL of tetrahydrofuran. This was shaken at room temperature for 7 days, and the obtained residues were subjected to powder X-ray diffraction measurement. 3 mg (0.0167 mmoles) of theophylline and a guest compound shown in Table 1 in an equimolar amount (0.0167 mmoles) to theophylline were weighed and put into a glass container, to which was then added 60 μL of toluene. These were shaken at room temperature for 7 days, and the obtained residues were subjected to powder X-ray diffraction measurement. 3 mg (0.0167 mmoles) of theophylline and a guest compound shown in Table 1 in an equimolar amount (0.0167 mmoles) to theophylline were weighed and put into a glass container, to which was then added 60 μL of ethyl acetate. These were shaken at room temperature for 7 days, and the obtained residues were subjected to powder X-ray diffraction measurement. 3 mg (0.0167 mmoles) of theophylline and a guest compound shown in Table 1 in an equimolar amount (0.0167 mmoles) to theophylline were weighed and put into a glass container, to which was then added 60 μL of acetone. These were shaken at room temperature for 7 days, and the obtained residues were subjected to powder X-ray diffraction measurement.

[2] = Cocrystal screening by slurry method (Comparative Examples 4-1 to 4-6), powder X-ray diffraction; parameters: key: A cocrystal was completely formed.; B: A mixture of a cocrystal and the host compound or guest compound was formed.; C: A cocrystal was not formed (a mixture of the host compound and the guest compound was formed).; —: A residue was not obtained; conditions: host carbamazepine, room temperature 7 days; for Cocrystal formation, Comparative Example 4-3: slurry in tetrahydrofuran
Experimental: as §1, with “(0.0127” for “(0.0167”, “carbamazepine” for “theophylline”, “4” for “1”, “4” for “I”, “These were” for “This was”

[3] = Cocrystal formation with 1-menthol under humidified condition (Example 3); parameters: key: A cocrystal was completely formed.; B: A mixture of a cocrystal and the host compound or guest compound was formed.; C: A cocrystal was not formed (a mixture of the host compound and the guest compound was formed); conditions: host theophylline, 1-menthol added, 80° C. and 90% RH
Experimental: About 30 mg (0.167 mmoles) of theophylline and about 29 mg (0.167 mmoles) of L(+)-arginine were weighed and mixed using an agate mortar. […] 15 mg of this mixed powder was weighed and put into a test tube, to which was then added 15 mg of 1-menthol which had been grinded using an agate mortar, followed by vigorously stirring for one minute using a vortex mixer. Thereafter, the obtained mixture of theophylline, L(+)-arginine, and 1-menthol was heated for 6 and 21 hours, respectively in a thermo-hygrostat at 80° C. and 90% RH, and the obtained solids were subjected to powder X-ray diffraction measurement and thermal analysis.

[4] = Cocrystal formation by heating under humidified condition without menthol (Comparative Example 7); parameters: key: A cocrystal was completely formed.; B: A mixture of a cocrystal and the host compound or guest compound was formed.; C: A cocrystal was not formed (a mixture of the host compound and the guest compound was formed); conditions: host theophylline, no menthol, 80° C. and 90% RH
Experimental: About 30 mg (0.167 mmoles) of theophylline and […] of L(+)-arginine were weighed and put into a test tube and mixed using an agate mortar. […] 15 mg of this mixed powder was weighed and put into a test tube and heated for 6 and 21 hours, respectively in a thermo-hygrostat at 80° C. and 90% RH, and the obtained solids were subjected to powder X-ray diffraction measurement and thermal analysis.

Row | Cocrystal formation, Comparative Example 1-6 [1] | Cocrystal formation, Comparative Example 1-2 [1] | Cocrystal formation, Comparative Example 1-5 [1] | Cocrystal formation, Comparative Example 1-3 [1] | Cocrystal formation, Comparative Example 1-4 [1] | Cocrystal formation, Comparative Example 1-1 ([1]; slurry in water) | Cocrystal formation, Comparative Example 1* [1] | Cocrystal formation, Comparative Example 4-3 [2] | Cocrystal formation, Comparative Example 4-5 ([2]; slurry in ethyl acetate) | SMILES | Cocrystal with theophylline found, Comparative Example 1-1 ([1]; slurry in water) | Cocrystal formation, Example 3, Heating for 6 hours ([3]; 6 hours) | Cocrystal formation, Example 3, Heating for 21 hours ([3]; 21 hours) | Cocrystal formation, Comparative Example 7, Heating for 6 hours ([4]; 6 hours) | Cocrystal formation, Comparative Example 7, Heating for 21 hours ([4]; 21 hours)
1 | C | C | C | C | C | A | A |  |  | NC(=O)c1ccccc1 [Benzamide] |  |  |  |  | 
2 | C | C | A | C | C | C | A | — | — | O=C(O)CC(O)(CC(=O)O)C(=O)O [Citric acid] |  |  |  |  | 
3 | A | A | A | A | A | C | A |  |  | O=S(=O)(O)CCS(=O)(=O)O [Ethanedisulfonic acid] |  |  |  |  | 
4 | C | C | C | C | C | C | C | — |  | NCC(=O)O [Glycine] |  |  |  |  | 
5 | C | C | C | C | C | C | C | — |  | CC(C)C[C@H](N)C(=O)O [L-Leucine] |  |  |  |  | 
6 | C | C | A | C | A | C | A |  |  | O=C(O)/C=C\C(=O)O [Maleic acid] |  |  |  |  | 
7 | A | B | A | B | A | C | A |  |  | NC(=O)c1cccnc1 [Nicotinamide] |  |  |  |  | 
8 | A | C | A | A | C | C | A | — |  | O=C(O)C(=O)O [Oxalic acid] |  |  |  |  | 
9 | C | A | A | C | C | C | A | — |  | O=C1NS(=O)(=O)c2ccccc21 [Saccharin] |  |  |  |  | 
10 | C | C | A | C | A | C | A | — |  | C/C=C/C=C/C(=O)O [Sorbic acid] |  |  |  |  | 

Row | SMILES | Cocrystal formation, Comparative Example 1-6 [1] | Cocrystal formation, Comparative Example 1-2 [1] | Cocrystal formation, Comparative Example 1-5 [1] | Cocrystal formation, Comparative Example 1-3 [1] | Cocrystal formation, Comparative Example 1-4 [1] | Cocrystal formation, Comparative Example 1-1 ([1]; slurry in water) | Cocrystal formation, Comparative Example 1* [1] | Cocrystal formation, Comparative Example 4-3 [2] | Cocrystal formation, Comparative Example 4-5 ([2]; slurry in ethyl acetate) | Cocrystal with theophylline found, Comparative Example 1-1 ([1]; slurry in water) | Cocrystal formation, Example 3, Heating for 6 hours ([3]; 6 hours) | Cocrystal formation, Example 3, Heating for 21 hours ([3]; 21 hours) | Cocrystal formation, Comparative Example 7, Heating for 6 hours ([4]; 6 hours) | Cocrystal formation, Comparative Example 7, Heating for 21 hours ([4]; 21 hours)
11 | O=C(O)c1ccccc1 [Benzoic acid] | C | C | C | C | C | C | C | — |  |  |  |  |  | 
12 | O=C(O)CCCC(=O)O [Glutaric acid] | C | C | C | C | C | C | C | — |  |  |  |  |  | 
13 | N=C(N)NCCC[C@H](N)C(=O)O [L(+)-Arginine] | C | C | C | C | C | A | A | — |  | could be found out | A | A | A | A
